Test results from patent US12329753B2, “Phosphodiesterase inhibitor treatment” (Cyrano Therapeutics, Inc., priority 2008, dated 2025).
Marks after values point to notes of the source that are not given here.

System: patients with hyposmia
Test: Smell function tests (DT, RT, ME), forced-choice three-stimuli stepwise-staircase technique, open trial of oral theophylline
Type: in vivo, human
Settings: for detection threshold (DT), amyl acetate / detection threshold (DT), nitrobenzene / detection threshold (DT), pyridine / detection threshold (DT), thiophene / magnitude estimation (ME), amyl acetate / magnitude estimation (ME), nitrobenzene / magnitude estimation (ME), pyridine / magnitude estimation (ME), thiophene / recognition threshold (RT), amyl acetate / recognition threshold (RT), nitrobenzene / recognition threshold (RT), pyridine / recognition threshold (RT), thiophene: mean ± SEM
Excerpt: Patients initially reported their sensory dysfunction as either loss of taste (i.e., flavor) and/or smell function. This subjective response was documented by objective psychophysical measurements of olfactory function administered to each patient by use of a forced-choice, three-stimuli, stepwise-staircase technique in a fixed, controlled design (1, 53). Efficacy of this technique and results of testing were previously documented in a double-blind clinical trial (53). Four odors were used; they were pyridine (dead-fish odor), nitrobenzene (bitter-almond odor), thiophene (petroleum-like odor) and amyl acetate (banana-oil odor). Detection thresholds (DT), recognition thresholds (RT) and magnitude estimation (ME) values for each odor were determined as previously described (1, 53). Thresholds were converted into bottle units (BU) as previously described (53) and results reported as M±SEM of correct responses for each odor in each treatment group; ME was reported in % and results calculated to obtain M±SEM for each treatment group for all correct responses using data for the four highest odor concentrations presented (from 10^−2M—an absolute odor concentration).
After determination of hyposmia, patients were treated in an open label, fixed design, controlled open trial. Patients were given an oral extended release theophylline in divided daily doses taken in the middle of breakfast and lunch. All patients were initially given 200 mg of theophylline; changes in this dose were made based upon subjective responses to therapy. If at a subsequent return visit, patients reported ≥5% subjective improvement in overall smell function, they continued on this same dose of theophylline and were reevaluated after four to six months of continued treatment. Results from any subsequent return from these improved patients were not included in any subsequent data report. All subsequent comparisons between treated and untreated patients were made only between those patients continuing in the study compared to their own measurements obtained in the untreated state. If patients reported <5% subjective improvement, their theophylline dose was increased by 200 mg daily and they were scheduled for retesting at the study site after two to four months at this new dosage. For patients that reported <5% improvement, this sequence continued until patients reached 800 mg of theophylline, at which time the study was considered completed.
Patients returned for reevaluation after two to four months of treatment. Measurements of blood serum theophylline were measured by a fluorescence polarization assay (Abbott, Chicago, IL). At this time, subjective changes in smell function were measured independently (compared to patient's memory of previous normal smell function monitored by use of the patients' daily measurements) using the scale from −100-0-+100 previously described (vs). After independently recording their subjective responses, smell function was measured for all four odors with DT, RT, ME and H determined without recourse to prior measurements.
Since data for all measurements from each patient group (local or distant) on each dose level were combined mean and SEM for each measurement (DT, RT, ME, H) of smell function for each treatment group were calculated on this basis. Differences in measurements between before treatment and each treatment level were calculated and significance of differences estimated using Student t tests (values p<0.05 considered significant). Some patient responses were also analyzed by use of non-parametric statistics (sign test) and the Spearman rank correlation technique; […] was considered significant related to smell loss type and treatment response. Since each patient served as his/her own control with respect to before and after treatment, paired t tests were also calculated; […] were considered significant. These values were not included in the results presented.

[1] = oral 200 mg daily, 2-6 months, all patients (199)
[2] = oral 200 mg, Type I hyposmia (57)
[3] = oral 400 mg daily, 2-6 months, all patients (120)
[4] = oral 400 mg, Type I hyposmia (33)
[5] = oral 600 mg daily, 2-12 months, all patients (160)
[6] = oral 600 mg, Type I hyposmia (51)
[7] = oral 800 mg daily, 2-12 months, all patients (28)
[8] = oral 800 mg, Type I hyposmia (12)

Cn1c(=O)c2[nH]cnc2n(C)c1=O [theophylline]
detection threshold (DT), amyl acetate [1]: 7.9 ± 0.2^c BU
detection threshold (DT), nitrobenzene [1]: 7.8 ± 0.2^d BU
detection threshold (DT), pyridine [1]: 7.6 ± 0.2^a BU
detection threshold (DT), thiophene [1]: 7.5 ± 0.2^c BU
magnitude estimation (ME), amyl acetate [1]: 15 ± 2^d %
magnitude estimation (ME), nitrobenzene [1]: 17 ± 2^ %
magnitude estimation (ME), pyridine [1]: 28 ± 2^a %
magnitude estimation (ME), thiophene [1]: 21 ± 2^ %
recognition threshold (RT), amyl acetate [1]: 9.9 ± 0.2^c BU
recognition threshold (RT), nitrobenzene [1]: 9.5 ± 0.2^a BU
recognition threshold (RT), pyridine [1]: 9.0 ± 0.2^a BU
recognition threshold (RT), thiophene [1]: 9.1 ± 0.2^c BU
detection threshold (DT), amyl acetate [2]: 10.5 ± 0.3^d BU
detection threshold (DT), nitrobenzene [2]: 10.3 ± 0.3^a BU
detection threshold (DT), pyridine [2]: 9.5 ± 0.2 BU
detection threshold (DT), thiophene [2]: 10.1 ± 0.3^d BU
recognition threshold (RT), amyl acetate [2]: 11.3 ± 0.2^ BU
recognition threshold (RT), nitrobenzene [2]: 11.2 ± 0.2^d BU
recognition threshold (RT), thiophene [2]: 11.4 ± 0.2^ BU
total mean increase in ME, all odors (oral 400 mg): 10.4%
detection threshold (DT), amyl acetate [3]: 7.1 ± 0.3^b BET
detection threshold (DT), nitrobenzene [3]: 7.2 ± 0.3^c BET
detection threshold (DT), pyridine [3]: 7.0 ± 0.3^c BET
detection threshold (DT), thiophene [3]: 6.8 ± 0.4^c BET
magnitude estimation (ME), amyl acetate [3]: 18 ± 2^c %
magnitude estimation (ME), nitrobenzene [3]: 23 ± 2^a %
magnitude estimation (ME), thiophene [3]: 26 ± 2^c %
recognition threshold (RT), nitrobenzene [3]: 8.9 ± 0.3^b BU
recognition threshold (RT), pyridine [3]: 8.5 ± 0.3^a BU
recognition threshold (RT), thiophene [3]: 8.4 ± 0.3^a BU
detection threshold (DT), amyl acetate [4]: 10.1 ± 0.5^a BU
detection threshold (DT), pyridine [4]: 8.8 ± 0.5 BU
recognition threshold (RT), amyl acetate [4]: 11.2 ± 0.3^ BU
recognition threshold (RT), nitrobenzene [4]: 10.9 ± 0.4^e BU
recognition threshold (RT), thiophene [4]: 10.8 ± 0.4^d BU
detection threshold (DT), amyl acetate [5]: 7.8 ± 0.3^a BET
detection threshold (DT), nitrobenzene [5]: 7.8 ± 0.3^a BET
detection threshold (DT), pyridine [5]: 7.4 ± 0.2^c BET
detection threshold (DT), thiophene [5]: 7.1 ± 0.3^a BET
magnitude estimation (ME), amyl acetate [5]: 15 ± 2^c %
magnitude estimation (ME), nitrobenzene [5]: 18 ± 2^d %
magnitude estimation (ME), pyridine [5]: 26 ± 2^d %
magnitude estimation (ME), thiophene [5]: 21 ± 2^d %
recognition threshold (RT), amyl acetate [5]: 9.6 ± 0.2^a BU
recognition threshold (RT), nitrobenzene [5]: 9.1 ± 0.2^c BU
recognition threshold (RT), pyridine [5]: 9.4 ± 0.2^c BU
recognition threshold (RT), thiophene [5]: 9.0 ± 0.3^c BU
detection threshold (DT), amyl acetate [6]: 10.1 ± 0.3^a BU
recognition threshold (RT), amyl acetate [6]: 11.1 ± 0.2^c BU
recognition threshold (RT), nitrobenzene [6]: 10.8 ± 0.3^e BU
recognition threshold (RT), pyridine [6]: 10.9 ± 0.3 BU
recognition threshold (RT), thiophene [6]: 10.9 ± 0.3^b BU
detection threshold (DT), amyl acetate [7]: 7.2 ± 0.8 BU
detection threshold (DT), nitrobenzene [7]: 7.0 ± 0.8^d BU
detection threshold (DT), thiophene [7]: 7.2 ± 0.7 BU
magnitude estimation (ME), amyl acetate [7]: 24 ± 2^a %
magnitude estimation (ME), nitrobenzene [7]: 25 ± 6 ^ %
magnitude estimation (ME), pyridine [7]: 29 ± 5%
magnitude estimation (ME), thiophene [7]: 20 ± 4%
recognition threshold (RT), amyl acetate [7]: 9.0 ± 0.5^b BU
recognition threshold (RT), nitrobenzene [7]: 7.8 ± 0.8^d BU
recognition threshold (RT), pyridine [7]: 8.5 ± 0.6^c BU
recognition threshold (RT), thiophene [7]: 9.6 ± 0.6 BU
detection threshold (DT), amyl acetate [8]: 10.6 ± 0.5^ BU
detection threshold (DT), nitrobenzene [8]: 10.1 ± 0.8^ BU
detection threshold (DT), pyridine [8]: 9.6 ± 0.8 BU
recognition threshold (RT), amyl acetate [8]: 11.6 ± 0.4^ BU
recognition threshold (RT), nitrobenzene [8]: 11.3 ± 0.7^ BU
recognition threshold (RT), pyridine [8]: 10.3 ± 1.0 BU
recognition threshold (RT), thiophene [8]: 11.6 ± 0.2^ BU
